# Results published in US9643916B2, “Low molecular weight cationic lipids for oligonucleotide delivery” (SIRNA THERAPEUTICS, INC., priority 2010, dated 2017).
# Experiments:
# [1] = tested on: mRNA transcript for the firefly (Photinus pyralis) luciferase gene; assay: Mouse in vivo evaluation of efficacy (luciferase mouse model, liver luminescence by IVIS imaging); settings: LSL-Luc transgenic mice, Luc siRNA RDVs tail vein injected, 0.3 to 3 mg/kg siRNA, imaged 48 hours post dose; compared with RDV containing octyl-CLinDMA (OCD); FIG. 1
# Protocol: LNPs utilizing Compounds 1-2, in the nominal compositions described immediately above, were evaluated for in vivo efficacy and induction of inflammatory cytokines in a luciferase mouse model. The siRNA targets the mRNA transcript for the firefly (Photinus pyralis) luciferase gene (Accession #M15077). […] The in vivo luciferase model employs a transgenic mouse in which the firefly luciferase coding sequence is present in all cells. ROSA26-LoxP-Stop-LoxP-Luc (LSL-Luc) transgenic mice licensed from the Dana Farber Cancer Institute are induced to express the Luciferase gene by first removing the LSL sequence with a recombinant Ad-Cre virus (Vector Biolabs). Due to the organo-tropic nature of the virus, expression is limited to the liver when delivered via tail vein injection. Luciferase expression levels in liver are quantitated by measuring light output, using an IVIS imager (Xenogen) following administration of the luciferin substrate (Caliper Life Sciences). Pre-dose luminescence levels are measured prior to administration of the RDVs. Luciferin in PBS (15 mg/mL) is intraperitoneally (IP) injected in a volume of 150 μL. […] In vivo efficacy results are expressed as % inhibition of luminescence relative to pre-dose luminescence levels. Plasma cytokine levels were determined using the SearchLight multiplexed cytokine chemiluminescent array (Pierce/Thermo). […]
# [2] = tested on: mRNA transcript for the ApoB gene; assay: Rat in vivo evaluation of efficacy (liver ApoB mRNA by quantitative RT-PCR); settings: Sprague-Dawley female rats, ApoB siRNA RDV tail vein injected, necropsy 24 hours after dosing; compared with RDV containing octyl-CLinDMA; FIG. 2
# Protocol: (§1) Six hours post dose, food is removed from the cages. Animal necropsy is performed 24 hours after LNP dosing. Rats are anesthetized under isoflurane for 5 minutes, then maintained under anesthesia by placing them in nose cones continuing the delivery of isoflurane until ex-sanguination is completed. Blood is collected from the vena cava using a 23 gauge butterfly venipuncture set and aliquoted to serum separator vacutainers for serum chemistry analysis. Punches of the excised caudate liver lobe are taken and placed in RNALater (Ambion) for mRNA analysis. Preserved liver tissue was homogenized and total RNA isolated using a Qiagen bead mill and the Qiagen miRNA-Easy RNA isolation kit following the manufacturer's instructions. Liver ApoB mRNA levels were determined by quantitative RT-PCR. Message was amplified from purified RNA utilizing a rat ApoB commercial probe set (Applied Biosystems Cat # RN01499054_m1). The PCR reaction was performed on an ABI 7500 instrument with a 96-well Fast Block. The ApoB mRNA level is normalized to the housekeeping PPIB (NM 011149) mRNA. PPIB mRNA levels were determined by RT-PCR using a commercial probe set (Applied Biosystems Cat. No. Mm00478295_m1). Results are expressed as a ratio of ApoB mRNA/PPIB mRNA. All mRNA data is expressed relative to the PBS control dose. […]
# [3] = Rat in vivo toxicity (serum ALT and AST); settings: Sprague-Dawley female rats, serum 24 hours after LNP dosing; compared with RDV containing octyl-CLinDMA; FIG. 3
# Protocol: as §1
smiles,measurement,setting,value
"CCCCC/C=C\C/C=C\CCCCCCCCOC[C@H](COCCCCCCCC)N(C)C [Compound 1, S-N,N-dimethyl-1-[(9Z,12Z)-octadeca-9,12-dien-1-yloxy]-3-(octyloxy)propan-2-amine]","In vivo efficacy, % inhibition of luminescence relative to pre-dose luminescence levels",[1],Greater efficacy
same,"In vivo efficacy, liver ApoB mRNA/PPIB mRNA relative to the PBS control dose",[2],Greater efficacy
same,Elevations in LFTs (ALT/AST),[3],lower elevations in LFTs (ALT/AST)
